This is an account of results in patent US7179825B2, “Retinoic acid mimetic anilides” (Janssen Pharmaceutica N.V., priority 1997, dated 2007).

As a reminder, the IC50 is the concentration that inhibits the measured activity by half.

Each structure is given as a SMILES string.

For one test, the system named is metabolism of retinoic acid in human breast cancer cells. The experiment in a line: Inhibition of retinoic acid (RA) metabolism (Example C.1). It is filed as cell-based. Conditions: MCF7; MCF-7 human breast cancer cells, 3H-RA as substrate; concentration needed to reduce the amount of metabolites to 50% of the control. The gist of the method:
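MCF-7 cells, pre-stimulated with RA the day before, incubated with ³H-RA substrate and test compound in 1% DMSO. Polar ³H-metabolites separated from unmetabolized RA and counted by scintillation. IC50 is the concentration cutting metabolite formation to 50% of control, with blank run alongside.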
Turning to `CC(C)C(c1ccc(NC(=O)Nc2ccc(F)cc2)cc1)n1ccnc1` (racemic) [Compound 740, (±)-N-(4-fluorophenyl)-N′-[4-[1-(1H-imidazol-1-yl)-2-methylpropyl]phenyl]urea], the IC50 is 1.29 nM.

The test is the same for the next values; noted with them: MCF-7 human breast cancer cells, 3H-RA as substrate; concentration needed to reduce the amount of metabolites to 50% of the control.
As to `CNC(=O)Nc1ccc(C(C(C)C)n2ccnc2)cc1` (centres unmarked) [Compound 267], the IC50 amounted to 7.75 nM.
On the same count and under the same terms, the value for `CC(C)C(c1ccc(NC(=O)C2CCCCC2)cc1)n1ccnc1` (racemic) [Compound 193] was 12.1 nM; that for `CC(C)C(c1ccc(NC(=O)C(c2ccccc2)c2ccccc2)cc1)n1ccnc1` (racemic) [Compound 655] was 16.1 nM; that for `CCC(CC)C(c1ccc(NC(=O)C2COc3ccccc3C2)cc1)n1ccnc1` (mixture of isomers) [Compound 33] was 1.01 nM.
For the compound `CC(C)C(c1ccc(NC(=O)Cc2cccc(O)c2)cc1)n1cncn1` (centres unmarked) [Compound 137], the IC50 stood at 1.85 nM.
Same read-out and setting: in the case of `CCOc1ccc(CCC(=O)Nc2ccc(C(C(CC)CC)n3ccnc3)cc2)cc1` (single isomer, unassigned) [Compound 61] it was 0.734 nM; in that of `O=C(Cc1ccc(Cl)cc1)Nc1ccc(C(c2ccccc2)n2ccnc2)cc1` (centres unmarked) [Compound 357], > 100 nM.
Regarding `CCC(C(c1ccc(NC(C)=O)cc1)n1ccnc1)N(C)C` (single isomer, unassigned) [Compound 558], the IC50 was found to be 1.32 nM.
Still for that read-out and setting: in the case of `CCC(CC)C(c1ccc(NC(=O)/C(C)=C/c2ccccc2)cc1)n1ccnc1` (racemic) [Compound 478] it was 1.63 nM.
`CCC(CC)C(c1ccc(NC(=O)Cc2cccc(OC)c2OCc2ccccc2)cc1)n1ccnc1` (racemic) [Compound 115]: the IC50 came to 8.17 nM.
For the compound `CC(C)C(c1ccc(NC(=O)c2ccc3c(c2)CCC(=O)N3)cc1)n1ccnc1` (racemic) [Compound 205], the IC50 was found to be 11.7 nM.
Consider `CCC(CC)C(c1ccc(NC(=O)Cc2ccc3c(c2)C(C)(C)CCC3(C)C)cc1)n1ccnc1` (racemic) [Compound 38], for which the IC50 was determined as 1.04 nM.
The same measure, in the same setting: in the case of `CCCCCC(CC)C(c1ccc(NC(=O)C(C)=Cc2ccccc2)cc1)n1ccnc1` (single isomer, unassigned) [Compound 492] it was 4.07 nM; in that of `COc1ccc(CC(=O)Nc2ccc(C(C(C)N(C)C)n3ccnc3)cc2)cc1C` (single isomer, unassigned) [Compound 313], 0.02 nM.
Same read-out and setting: the value for `C/C(=C\c1ccc2ncccc2c1)C(=O)Nc1ccc(C(C(C)C)n2ccnc2)cc1` (racemic) [Compound 590] was 2.78 nM.
As to `CCC(CC)C(c1ccc(NC(=O)Cc2ccc(Oc3ccccc3)cc2)cc1)n1ccnc1` (racemic) [Compound 103], the IC50 amounted to 7.11 nM.
Take `CC(C)C(c1ccc(NC(=O)Nc2ccc3c(c2)OCCO3)cc1)n1ccnc1` (racemic) [Compound 276]: the IC50 turned out to be 16 nM.
The same measure, in the same setting: the value for `CC(C)C(c1ccc(NC(=O)c2csc(-c3ccccc3)n2)cc1)n1ccnc1` (racemic) [Compound 186] was > 100 nM; that for `CC(C)C(C(=O)Nc1ccc(C(C(C)C)n2ccnc2)cc1)c1ccccc1` (racemic) [Compound 658] was 5.48 nM; that for `C/C(=C\c1ccc(F)c(Br)c1)C(=O)Nc1ccc(C(C(C)C)n2ccnc2)cc1` (racemic) [Compound 608] was 6.61 nM.
Turning to `CC(=CC(=O)Nc1ccc(C(c2ccc(Cl)cc2)n2ccnc2)cc1)c1ccccc1` (racemic) [Compound 512], the IC50 was 616 nM.
Same read-out and setting: in the case of `CCOc1ccc(CCC(=O)Nc2ccc(C(C(C)N(C)C)n3ccnc3)cc2)cc1` (single isomer, unassigned) [Compound 346] it was 2.04 nM; in that of `CCC(C)C(c1ccc(NC(=O)Cc2ccc(Cl)cc2)cc1)n1ccnc1` (racemic) [Compound 364], 1.41 nM; in that of `CCC(CC)C(c1ccc(NC(=O)C2=COc3ccccc3O2)cc1)n1ccnc1` (racemic) [Compound 25], 61 nM.

A further test relates to Ovariectomized rats. Description: Vaginal keratinization test on ovariectomized rats (Example C.2). The settings on record: Rattus norvegicus, po, estradiol undecylate induced keratinization, per os once daily on days 1-3, active dose = 50% of rats show complete suppression, read-out: LAD (lowest active dose). It is filed as in vivo. In outline:
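Ovariectomized rats given s.c. estradiol undecylate (100 μg per 100 g body weight in sesame oil), then oral compound once daily on days 1-3 (vehicle PEG 200). Vaginas assessed histologically one day after last dose; lowest active dose (mg/kg) is the dose giving complete keratinization suppression in 50% of rats.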
In the case of `CC(C)C(c1ccc(NC(=O)Nc2ccc(F)cc2)cc1)n1ccnc1` (racemic) [Compound 740, (±)-N-(4-fluorophenyl)-N′-[4-[1-(1H-imidazol-1-yl)-2-methylpropyl]phenyl]urea], the minimal effective dose is 20 mg/kg.

Staying with this test, now noted: estradiol undecylate induced keratinization, per os once daily on days 1-3, active dose = 50% of rats show complete suppression.
In the case of `CNC(=O)Nc1ccc(C(C(C)C)n2ccnc2)cc1` (centres unmarked) [Compound 267], the “LAD (lowest active dose)” value is recorded as >10.00 mg/kg.
On the same count and under the same terms, in the case of `CC(C)C(c1ccc(NC(=O)C2CCCCC2)cc1)n1ccnc1` (racemic) [Compound 193] it was >10.00 mg/kg.
The same measure, in the same setting: in the case of `CC(C)C(c1ccc(NC(=O)C(c2ccccc2)c2ccccc2)cc1)n1ccnc1` (racemic) [Compound 655] it was >10.00 mg/kg; in that of `CCC(CC)C(c1ccc(NC(=O)C2COc3ccccc3C2)cc1)n1ccnc1` (mixture of isomers) [Compound 33], 5.00 mg/kg; in that of `CC(C)C(c1ccc(NC(=O)Cc2cccc(O)c2)cc1)n1cncn1` (centres unmarked) [Compound 137], >5.00 mg/kg.
Take `CCOc1ccc(CCC(=O)Nc2ccc(C(C(CC)CC)n3ccnc3)cc2)cc1` (single isomer, unassigned) [Compound 61]: the “LAD (lowest active dose)” value is recorded as 2.50 mg/kg.
Take `O=C(Cc1ccc(Cl)cc1)Nc1ccc(C(c2ccccc2)n2ccnc2)cc1` (centres unmarked) [Compound 357]: the “LAD (lowest active dose)” value is recorded as >10.00 mg/kg.
Still for that read-out and setting: in the case of `CCC(C(c1ccc(NC(C)=O)cc1)n1ccnc1)N(C)C` (single isomer, unassigned) [Compound 558] it was >5.00 mg/kg; in that of `CCC(CC)C(c1ccc(NC(=O)/C(C)=C/c2ccccc2)cc1)n1ccnc1` (racemic) [Compound 478], 2.50 mg/kg; in that of `CCC(CC)C(c1ccc(NC(=O)Cc2cccc(OC)c2OCc2ccccc2)cc1)n1ccnc1` (racemic) [Compound 115], >2.50 mg/kg.
For `CC(C)C(c1ccc(NC(=O)c2ccc3c(c2)CCC(=O)N3)cc1)n1ccnc1` (racemic) [Compound 205], the “LAD (lowest active dose)” value is given as >10.00 mg/kg.
Regarding `CCC(CC)C(c1ccc(NC(=O)Cc2ccc3c(c2)C(C)(C)CCC3(C)C)cc1)n1ccnc1` (racemic) [Compound 38], the “LAD (lowest active dose)” value worked out at 5.00 mg/kg.
Consider `CCCCCC(CC)C(c1ccc(NC(=O)C(C)=Cc2ccccc2)cc1)n1ccnc1` (single isomer, unassigned) [Compound 492], for which the “LAD (lowest active dose)” value was >2.50 mg/kg.
Still for that read-out and setting: the value for `COc1ccc(CC(=O)Nc2ccc(C(C(C)N(C)C)n3ccnc3)cc2)cc1C` (single isomer, unassigned) [Compound 313] was 2.50 mg/kg; that for `C/C(=C\c1ccc2ncccc2c1)C(=O)Nc1ccc(C(C(C)C)n2ccnc2)cc1` (racemic) [Compound 590] was >10.00 mg/kg.
Turning to `CCC(CC)C(c1ccc(NC(=O)Cc2ccc(Oc3ccccc3)cc2)cc1)n1ccnc1` (racemic) [Compound 103], the “LAD (lowest active dose)” value is given as >2.50 mg/kg.
With `CC(C)C(c1ccc(NC(=O)Nc2ccc3c(c2)OCCO3)cc1)n1ccnc1` (racemic) [Compound 276], the “LAD (lowest active dose)” value was >10.00 mg/kg.
Still for that read-out and setting: the value for `CC(C)C(c1ccc(NC(=O)c2csc(-c3ccccc3)n2)cc1)n1ccnc1` (racemic) [Compound 186] was >10.00 mg/kg; that for `CC(C)C(C(=O)Nc1ccc(C(C(C)C)n2ccnc2)cc1)c1ccccc1` (racemic) [Compound 658] was >10.00 mg/kg.
The same measure, in the same setting: the value for `C/C(=C\c1ccc(F)c(Br)c1)C(=O)Nc1ccc(C(C(C)C)n2ccnc2)cc1` (racemic) [Compound 608] was >10.00 mg/kg.
The same measure, in the same setting: in the case of `CC(=CC(=O)Nc1ccc(C(c2ccc(Cl)cc2)n2ccnc2)cc1)c1ccccc1` (racemic) [Compound 512] it was >20.00 mg/kg; in that of `CCOc1ccc(CCC(=O)Nc2ccc(C(C(C)N(C)C)n3ccnc3)cc2)cc1` (single isomer, unassigned) [Compound 346], >5.00 mg/kg.
Turning to `CCC(C)C(c1ccc(NC(=O)Cc2ccc(Cl)cc2)cc1)n1ccnc1` (racemic) [Compound 364], the “LAD (lowest active dose)” value stood at 2.50 mg/kg.
Same read-out and setting: in the case of `CCC(CC)C(c1ccc(NC(=O)C2=COc3ccccc3O2)cc1)n1ccnc1` (racemic) [Compound 25] it was 10.00 mg/kg.
